Experimental data as given in patent publication US11110158B2, “Prostate-associated antigens and vaccine-based immunotherapy regimens” (Pfizer Inc., priority 2012, dated 2021).
“And” between values parts separate entries of the source, which are not always exact repeats. Identical values can stand only once. Like-named read-outs stand apart in the source and are kept apart here.

Legend:
human PSMA = test: IFNγ ELISPOT of PBMCs, PSMA vaccine with or without anti-CTLA-4 in Indian rhesus macaques, human PSMA recall antigens; format: in vivo, rhesus macaque
Description: (§1) Three groups of male Indian rhesus macaques, five to six (#1 to 5 or 6) per each test group, were immunized with a nucleic acid (SEQ ID NO: 10) that encodes a human PSMA modified antigen (SEQ ID NO: 9) delivered by adenovirus (1e11 V.P. injected intramuscularly) followed by 2 DNA immunizations (8 actuations/immunization, 4 actuations per each right and left side of the lower abdomen) by PMED with 6 and 9 week intervals respectively. Animals in Groups 2 and 3 additionally received bilateral intradermal injections of 3 mg of CpG (PF-03512676) subsequently after the PMED immunization in proximity to each inguinal draining lymph node. Group 2 also received intravenous injections of anti-CTLA-4 monoclonal antibody (CP-675, 206) at 10 mg/kg and group 3 received intradermal injections of anti-CTLA-4 monoclonal antibody (CP-675, 206) at 5 mg/kg in proximity to each left and right inguinal vaccine draining lymph node at the time of the second PMED immunization.
Peripheral blood samples were collected from each animal sixteen days after the last PMED immunization. Peripheral blood mononuclear cells (PBMCs) were isolated from the samples and were subjected to an IFNγ ELISPOT assay to measure the PSMA specific T cell responses. Briefly, 4e5 PBMCs from individual animals were plated per well with pools of PSMA specific peptides each at 2 ug/ml hPSMA ECD protein at 10 ug/ml, rhesus PSMA ECD protein at 10 ug/ml or nonspecific control peptides (human HER2 peptide pool) each at 2 ug/ml in IFNγ ELISPOT plates. The plates were incubated for 16 hrs at 37° C. and 5% CO2 and washed and developed after incubation as per manufacturer's instruction. The number of IFNγ spot forming cells (SFC) were counted by CTL reader. Each condition was performed in duplicates.
A capture antibody specific to IFNγ([…]BD Bioscience, #51-2525kc) is coated onto a polyvinylidene fluoride (PVDF) membrane in a microplate overnight at 4° C. The plate is blocked with serum/protein to prevent nonspecific binding to the antibody. After blocking, effector cells (such as splenocytes isolated from immunized mice or PBMCs isolated from rhesus macaques) and targets (such as PSMA peptides from peptide library, target cells pulsed with antigen specific peptides or tumor cells expressing the relevant antigens) are added to the wells and incubated overnight at 37° C. in a 5% CO2 incubator. Cytokine secreted by effector cells are captured by the coating antibody on the surface of the PVDF membrane. After removing the cells and culture media, 100 μl of a biotinylated polyclonal anti-humanIFNγ antibody was added to each of the wells for detection. The spots are visualized by adding streptavidin-horseradish peroxidase and the precipitate substrate, 3-amino-9-ethylcarbazole (AEC), to yield a red color spot as per manufacturer's (Mabtech) protocol. Each spot represents a single cytokine producing T cell.

rhesus PSMA = test: IFNγ ELISPOT of PBMCs, PSMA vaccine with or without anti-CTLA-4 in Indian rhesus macaques, rhesus PSMA recall antigens; format: in vivo; details: Group 2, vaccine + CpG 3 mg intradermal + aCTLA4 10 mg/kg intravenous (IV), normalized to 1e6 PBMCs, one cell per animal
Description: as §1
Peripheral blood samples were collected from each animal sixteen days after the last PMED immunization. Peripheral blood mononuclear cells (PBMCs) were isolated from the samples and were subjected to an IFNγ ELISPOT assay to measure the PSMA specific T cell responses. […] The number of IFNγ spot forming cells (SFC) were counted by CTL reader. […]

[1] = set-up: species or system Indian Rhesus macaques; details: rhesus monkey, in vivo, 10 mg/kg
Description: Three animals per treatment group were injected with the anti-CTLA-4 antibody Tremelimumab at 10 mg/kg, either with a single intravenous injection into the saphenous vein or multiple 0.2 ml intradermal bilateral injections in the upper thigh in proximity to the inguinal draining lymph nodes. Blood samples were collected at 0, 1, 2, 4, 8, 12, 24, and 48 hrs post injection into 2.0 ml vaccutainer tubes containing lithium heparin as the anticoagulant. Plasma was collected from the supernatant in the vaccutainer tubes after centrifugation at 1500×g at 4° C. for 10 min. The levels of Tremelimumab in the plasma was measured by a quantitative ELISA assay according to the procedure provided below.
Tremelimumab Quantitative ELISA Assay Procedure. The 384-well high bind assay plates (VWR-Greiner Bio-One Cat #82051-264) were coated with 25 μl/well of CD-152 (CTLA-4; Ancell Immunology Research Products Cat #501-020) at 1.0 μg/ml in 100 mM carbonate-bicarbonate coating buffer and incubated overnight at 4° C. […] The colorimetric reaction was stopped by addition of 12.5 μL/well 1N Sulfuric acid and the absorbance then read at 450 nm. The amount of Tremelimumab in each sample was quantified using the standard curve with 0.27 to 67 ng/mL used as the quantitative range.

[2] = Group 2, vaccine + CpG 3 mg intradermal + aCTLA4 10 mg/kg intravenous (IV), rhesus PBMCs, normalized to 1e6 PBMCs, one cell per animal, 10 mg/kg
[3] = Group 3, vaccine + CpG 3 mg intradermal + aCTLA4 5 mg/kg intradermal (ID) near each inguinal node, rhesus PBMCs, normalized to 1e6 PBMCs, ^ too numerous to count, 5 mg/kg

Tremelimumab: fully human IgG2 anti-CTLA-4 monoclonal antibody, CAS 745013-59-6, SEQ ID NOs:42 and 43
PSMA specific IFNγ SFC, recall antigen H1 (human PSMA; [2]): 71.3 SFC and 2.5 SFC and 1063.8 SFC and 147.5 SFC and 402.5 SFC
PSMA specific IFNγ SFC, recall antigen H2 (human PSMA; [2]): 292.5 SFC and 108.8 SFC and 82.5 SFC and 983.8 SFC and 573.8 SFC
PSMA specific IFNγ SFC, recall antigen P1 (human PSMA; [2]): 23.8 SFC and 0.0 SFC and 58.8 SFC and 25.0 SFC and 15.0 SFC
PSMA specific IFNγ SFC, recall antigen P2 (human PSMA; [2]): 57.5 SFC and 61.3 SFC and 41.3 SFC and 318.8 SFC and 312.5 SFC
PSMA specific IFNγ SFC, recall antigen P3 (human PSMA; [2]): 1.3 SFC and 0.0 SFC and 7.5 SFC and 27.5 SFC and 5.0 SFC
PSMA specific IFNγ SFC, recall antigen hPSMA protein (human PSMA; [2]): 278.8 SFC and 78.8 SFC and 1197.5 SFC and 1046.3 SFC and 707.5 SFC
PSMA specific IFNγ SFC, recall antigen H2 (human PSMA; [3]): ≥ 1236.3^ SFC and ≥ 1247.5^ SFC and ≥ 1248.8^ SFC and 1173.8 SFC
PSMA specific IFNγ SFC, recall antigen hPSMA protein (human PSMA; [3]): ≥ 1236.8^ SFC and ≥ 1247.5^ SFC and ≥ 1248.8^ SFC and ≥ 1242.5^ SFC
IFNγ T cell responses to PSMA specific peptides and proteins (human PSMA; group 2: vaccine + CpG (PF-03512676) + systemic (intravenous) anti-CTLA-4 10 mg/kg, versus vaccine alone): modestly enhanced
IFNγ T cell responses to PSMA specific peptides and proteins (human PSMA; group 3: vaccine + CpG + anti-CTLA-4 delivered locally by intradermal injections near the vaccine draining lymph node): more potent and significant enhancement of the response
PSMA specific IFNγ SFC, recall antigen R1 (rhesus PSMA): 6.3 SFC and 0.0 SFC and 22.5 SFC and 26.3 SFC and 97.5 SFC
PSMA specific IFNγ SFC, recall antigen rPSMA protein (rhesus PSMA): 0.0 SFC and 3.8 SFC and 1.3 SFC and 2.5 SFC and 20.0 SFC
AUC0-24 [1]: 4900 µg·h/mL
AUC0-24 ([1]; iv): 7200 µg·h/mL
